The subject of assay [1] is human macrophages. In words: Human macrophage phagocytosis, ROS and efferocytosis. It counts as cell-based. The protocol:
Macrophages were prepared from peripheral blood mononuclear cells (PBMC) purchased from Children's Hospital Blood Bank, Boston, and phagocytosis was assessed as in^31. Briefly, macrophages (5×10^4 cells/well) were incubated with RvT1 (1 pM-10 nM), 1:1 mixture RvT2 and RvT3 (1 pM-10 nM), RvT4 (1 pM-10 nM) or vehicle (0.1% EtOH in DPBS) for 15 min at 37° C., then fluorescent labeled apoptotic cells were added and cells incubated 45 min at 37° C. Extracellular fluorescence was quenched using Trypan blue (1:15 dilution) and phagocytosis assessed using an M3 SpectraMax plate reader (Molecular Devices). In select experiments, macrophages (prepared as detailed above, 5×10^4 cells/well) or neutrophils (1×10^5 cells/well), obtained from human healthy volunteers and isolated as in ^31 in accordance with Partners Human Research Committee Protocol (number 1999P001297), were incubated with H2DCFDA (5 μM, 30 min, 37° C.), excess dye was washed off and cells incubated with RvT1 (1 pM-10 nM), 1:1 mixture RvT2 and RvT3 (1 pM-10 nM), RvT4 (1 pM-10 nM) or vehicle (0.1% EtOH in DPBS, 15 min, 37° C.), then incubated with E. coli (1:50 leukocytes to E. coli, 45 min, 37° C.). Intracellular reactive oxygen species were determined by measuring fluorescence using an M3 SpectraMax plate reader. To assess bacterial phagocytosis, macrophages (5×10^4 cells/well) or neutrophils (1×10^5 cells/well) were incubated with RvT1 (1 pM-10 nM), 1:1 mixture RvT2 and RvT3 (1 pM-10 nM), RvT4 (1 pM-10 nM) or vehicle (0.1% EtOH in DPBS, 15 min, 37° C.), then incubated with BacLight Green (Molecular Probes) labeled E. coli (1:50 leukocytes to E. coli, 45 min, 37° C.). Extracellular fluorescence was then quenched using Trypan blue (1:15 dilution), and phagocytosis was assessed using an M3 SpectraMax plate reader.

The test system of the next assay is human neutrophils. In words: Human neutrophil phagocytosis and ROS. It counts as cell-based. The following applies: 1 pM-1.0 nM, n=4 donors. The protocol:
Macrophages were prepared from peripheral blood mononuclear cells (PBMC) purchased from Children's Hospital Blood Bank, Boston, and phagocytosis was assessed as in^31. Briefly, macrophages (5×10^4 cells/well) were incubated with RvT1 (1 pM-10 nM), 1:1 mixture RvT2 and RvT3 (1 pM-10 nM), RvT4 (1 pM-10 nM) or vehicle (0.1% EtOH in DPBS) for 15 min at 37° C., then fluorescent labeled apoptotic cells were added and cells incubated 45 min at 37° C. Extracellular fluorescence was quenched using Trypan blue (1:15 dilution) and phagocytosis assessed using an M3 SpectraMax plate reader (Molecular Devices). […] Intracellular reactive oxygen species were determined by measuring fluorescence using an M3 SpectraMax plate reader. […] Extracellular fluorescence was then quenched using Trypan blue (1:15 dilution), and phagocytosis was assessed using an M3 SpectraMax plate reader.

In assay [2] the test system is human macrophages. In words: Human macrophage caspase 1, IL-1β and lactate dehydrogenase. It counts as cell-based. As to the method: Human macrophages (1.5×10^4 cells/well) were incubated with RvT1 (10 pM-10 nM), 1:1 mixture RvT2 and RvT3 (10 pM-10 nM), RvT4 (10 pM-10 nM) or vehicle (0.1% EtOH in DPBS, 15 min, 37° C.), then E. coli (7.5×10^5 cells/well, in DPBS, 16 h, 37° C.). Caspase 1 levels were assessed in macrophages by flow cytometry after cell fixing and permeabilization, staining with an anti-caspase 1 (Abcam; 4° C., 30 min) and anti-rabbit-Alexa 488 conjugated antibody (Molecular Probes; 4° C., 30 min). IL-1β levels were determined in cell-free supernatants using an anti-human IL-1β ELISA (eBiosciences) following manufacturer's instructions. Lactate dehydrogenase activity was measured in cell-free supernatants assessing the formation of NADH from NAD+ using a Lactate Dehydrogenase Assay kit (Sigma) following manufacturer's instructions.

Assay [3] deals with E. coli infections in mice. The assay can be described thus: E. coli peritonitis in mice. The format is in vivo. The following applies: summary table of bioactions. As to the method:
All animal experiments were conducted in accordance with the Harvard Medical Area Standing Committee on Animals (protocol no. 02570). Mice (male FvB, 6-8 weeks old, Charles River, fed lab diet containing essential fatty acids as from supplier) were anesthetized with isoflurane and microbial peritonitis initiated. Briefly, test compounds or vehicle were injected i.p. or i.v. 5 min prior to live E. coli (serotype 06:K2:H1; 1×10^5 or 1×10^7 CFU/mouse). At designated time intervals mice were harvested, blood was collected via cardiac puncture in heparin, and peritoneal exudates were collected in 4 ml of PBS. The cellular composition in the exudates was determined using Turks solution and light microscopy, and by flow cytometry. For flow cytometry, exudate cells were incubated with anti-mouse CD16/CD32 (eBiosciences, 20 min, 4° C., in PBS containing 5% fetal calf serum-staining solution), followed by incubation with FITC-conjugated anti-mouse Ly6G antibody (clone: 1A8, eBiosciences), PE-conjugated anti-mouse F4/80 antibody (clone:BM8, eBiosciences) and PerCP-Cy5.5-conjugated anti-mouse CD11b antibody (clone:M1/70, eBiosciences) for 30 min (4° C., in staining solution). To assess bacterial phagocytosis in peritoneal exudate leukocytes, exudate cells were incubated with PerCP-Cy5.5-conjugated anti-mouse CD11b antibody (30 min, 4° C., in staining solution), then fixed and permeabilized using BD Perm/Wash™ Buffer (BD Biosciences) following manufacturer's instructions and incubated with FITC-conjugated anti-E. coli antibody (GenTex, 30 min, 4° C., in BD Perm/Wash™ Buffer). Efferocytosis in infectious exudates was assessed by incubating exudate leukocytes with PE-conjugated anti-mouse F4/80 antibody (30 min, 4° C., in staining solution), then fixed and permeabilized using BD Perm/Wash™ Buffer (BD Biosciences) and incubated with FITC-conjugated anti-mouse Ly6G antibody (30 min, 4° C., in BD Perm/Wash™ Buffer). Body temperatures were assessed using an Infrared thermometer (Fluke). Bacterial counts in peripheral blood and inflammatory exudates were determined by overnight cultures (37° C.) of serially diluted samples on LB agar plates. Caspase 1 levels were assessed by incubation of exudate cells with PerCP-Cy5.5-conjugated anti-mouse CD11b antibody (30 min, 4° C., in staining solution), then fixed and permeabilized using BD Perm/Wash™ Buffer (BD Biosciences), incubated with anti-caspase 1 antibody (Abcam, 30 min, 4° C., in BD Perm/Wash™ Buffer) followed by anti-rabbit Alexa 488 conjugated antibody (Life Technologies, 30 min, 4° C., in BD Perm/Wash™ Buffer). IL-1β levels were determined in cell-free supernatants using an anti-mouse IL-1β ELISA (Abcam) following manufacturer's instructions. Lactate dehydrogenase activity was measured in cell-free supernatants assessing the formation of NADH from NAD+ using a Lactate Dehydrogenase Assay kit (Sigma) following manufacturer's instructions.
In select experiments resolution indices were calculated as in ^27. Ψmax, maximal PMN numbers in exudates; Tmax, time point when PMN numbers reach maximum; R50, 50% of maximal PMN numbers; T50, time point when PMN numbers reduce to 50% of maximum; Ri (resolution interval), T50-Tmax, time period when 50% PMN are lost from the exudates. To assess the proresolving actions of the test products, these were administered 12 h after E. coli (10^5 CFU) inoculation, and resolution indices were assessed.
For some experiments, mice were administered via i.p. injection RvT1, RvT2, RvT3 and RvT4 (that were isolated as detailed below and combined as a mixture at a ratio of 2:1:1:8 respectively) 2 h after E. coli inoculation. Blood and lungs were harvested 6 h after E. Coli inoculation. Blood was employed to determine peripheral blood eicosanoid levels as detailed below.

In assay [4] the target is T1, human recombinant COX-2 (Homo sapiens, UniProt P35354).
T1 construct: purchased Cayman Chemicals
T1 sequence (P35354 18-604): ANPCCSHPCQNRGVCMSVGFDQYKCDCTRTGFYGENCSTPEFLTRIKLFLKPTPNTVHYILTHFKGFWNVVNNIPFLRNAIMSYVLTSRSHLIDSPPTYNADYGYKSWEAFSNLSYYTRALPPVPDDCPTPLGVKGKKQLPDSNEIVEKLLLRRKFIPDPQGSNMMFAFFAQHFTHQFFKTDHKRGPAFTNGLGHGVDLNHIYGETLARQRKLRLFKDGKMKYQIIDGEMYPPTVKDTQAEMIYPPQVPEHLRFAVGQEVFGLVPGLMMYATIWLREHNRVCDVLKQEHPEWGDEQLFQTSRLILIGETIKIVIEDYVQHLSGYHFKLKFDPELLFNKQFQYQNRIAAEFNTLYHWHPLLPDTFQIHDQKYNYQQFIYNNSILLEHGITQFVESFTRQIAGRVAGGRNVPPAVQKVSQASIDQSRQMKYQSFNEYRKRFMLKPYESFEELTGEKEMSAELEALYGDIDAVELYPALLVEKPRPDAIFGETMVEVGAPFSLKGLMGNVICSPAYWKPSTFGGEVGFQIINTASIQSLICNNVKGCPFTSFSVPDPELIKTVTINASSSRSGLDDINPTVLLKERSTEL
The assay can be described thus: n-3 DPA conversion by S-nitrosylated hrCOX-2. It counts as biochemical. The following applies: hrCOX-2 incubated with S-nitrosoglutathione.
Description: In designated experiments, n-3 DPA was incubated with hrCOX2, hrCOX-2 that was previously incubated with S-nitrosoglutathione (30 min RT), prepared by incubating 100 mM glutathione with 100 mM sodium nitrite in 200 mM hydrochloric acid at RT as in ^34 or S-nitrosoglutathione. After 20 min the incubations were quenched with methanol and 13-HDPA levels were assessed using LC-MS-MS-based LM metabololipidomics.

For assay [5], the system named is human neutrophil-endothelial cell co-incubations. In words: Lipid mediator levels in human endothelial cell incubations and neutrophil-endothelial cell co-incubations. It counts as cell-based. The following applies: neutrophil-endothelial cells, 1 μM precursor.
Description: Prior to sample extraction, deuterated internal standards (d4-PGE2, d5-LXA4, d4-RvD2, d4-LTB4 and d8-5S-HETE) representing regions of interest in the chromatographic analysis (500 pg each) were added to facilitate quantification. Extracted samples were analyzed by a LC-MS-MS system, Qtrap 6500 (AB Sciex) equipped with a Shimadzu SIL-20AC autoinjector and LC-20AD binary pump (Shimadzu Corp.). An Agilent Eclipse Plus C18 column (100×4.6 mm×1.8 μm) was used with a gradient of methanol/water/acetic acid of 55:45:0.01 (vol:vol:vol) that was ramped to 85:15:0.01 (vol:vol:vol) over 10 min and then to 98:2:0.01 (vol:vol:vol) for the next 8 min. This was subsequently maintained at 98:2:0.01 (vol:vol:vol) for 2 min. The flow rate was maintained at 0.4 ml/min. To monitor and quantify the levels of lipid mediators, a multiple reaction monitoring (MRM) method was developed with signature ion fragments (m/z) for each molecule monitoring the parent ion (Q1) and a characteristic daughter ion (Q3). […] Calibration curves were determined using a mixture of lipid mediators obtained via total organic synthesis, where these lipid mediators were not available (RvT1, RvT2, RvT3, RvT4 and 13-HDPA); known mediators with similar chromatographic properties (RvD2 for RvT1, RvD1 for RvT2 and RvT3; RvD5 for RvT4; 13-HDHA for 13-HDPA) were used. […]
Assay [6] deals with T1, human recombinant COX-2. The assay can be described thus: Recombinant enzyme incubations, Michaelis Menten kinetics. The format is biochemical. The following applies: n-3 DPA converted to 13R-HDPA by human recombinant COX-2. The protocol: Human recombinant COX-2 (10 units; Cayman Chemicals; in 0.1 M Tris-HCl, pH 8.0, 20 μM porcine hematin, 0.67 mM phenol as in ^33) was incubated with the indicated concentrations of AA or n-3 DPA (1 h, RT) and absorbance at 235 nm was investigated at 1 min intervals using a Cary UV-Vis Spectrophotometer (Agilent).

Where [7] appears, read: summary table, macrophages and neutrophils.

The results in this text go back to US11555006B2, “Elucidation of novel 13-series resolvins that increase with atorvastatin and clear infections” (The Brigham and Women's Hospital, Inc., priority 2015, dated 2023).

SMILES strings stand for the structures.

As to `CCC(O)/C=C/C=C\C=C\C(O)C/C=C\C=C\C(O)CCCCCC(=O)O` (stereo not drawn) [RvT1, 7,13,20-trihydroxy-docosapentaenoic acid], in the assay with human macrophages [1] (1 pM-10 nM), the “E. coli phagocytosis in human macrophages” value is recorded as “dose-dependently increased”, the “efferocytosis of apoptotic neutrophils by human macrophages” value is “dose-dependently increased” and the “intracellular reactive oxygen species (ROS) in human macrophages” value was “dose-dependently increased”. Further, in the assay on human macrophages [1] (summary table of bioactions), the “In vitro: human macrophage efferocytosis of apoptotic neutrophils” value is listed as “Stimulates human”. Besides, in the assay on human macrophages [1] (setting [7]), the “In vitro: human macrophage and neutrophil intra-phagolysosomal ROS production” value was “Stimulates human”; the “In vitro: human macrophage and neutrophil phagocytosis of E. coli” value is reported as “Stimulates human”. In the assay on human neutrophils, the “increase in E. coli phagocytosis, human neutrophils” value is listed as 20-55% and the “increase in intracellular ROS, human neutrophils” value is 20-40%. For the same compound, in the assay with human macrophages [2] (10 pM-10 nM, E. coli 16 h), the “IL-1β expression, human macrophages” value is on record as “decreasing”; the “caspase-1 expression, human macrophages” value is “decreasing”; the “extracellular lactate dehydrogenase activity, human macrophages” value was “decreasing”. Further, in the assay on human macrophages [2] (summary table of bioactions), the “In vitro: E. coli induced inflammasome components in human macrophages” value is “Reduces E. coli induced” and the “In vitro: E. coli induced macrophage pyroptosis” value is recorded as “Reduces E. coli induced”. In assay [3], the “In vivo: circulating platelet-leukocyte aggregates” value was “Reduces circulating platelet-”, the “In vivo: exudate pro-inflammatory eicosanoid levels during infections” value is “Reduces exudate pro-”, the “In vivo: infection induced hypothermia” value was “Protects against infection” and the “In vivo: macrophage efferocytosis of apoptotic neutrophils” value is given as “Stimulates macrophage”. In assay [3], the “In vivo: murine leukocyte phagocytosis of E. coli” value is “Stimulates murine leukocyte”, the “In vivo: neutrophil recruitment during infections” value is “Limits neutrophil recruitment”, the “In vivo: protective actions of atorvastatin in infections” value is listed as “Elaborates the protective” and the “In vivo: pyroptosis” value is “Reduces pyroptosis”.
As to `N[C@@H](CCC(=O)N[C@@H](CSN=O)C(=O)NCC(=O)O)C(=O)O` [S-nitrosoglutathione], the “13R-HDPA and hrCOX-2 catalytic activity compared to native COX-2” value at human recombinant COX-2 [4] is “increased”.
As to `CC/C=C\C/C=C\C/C=C\C/C=C\C/C=C\CCCCCC(=O)O` [n-3 DPA, n-3 docosapentaenoic acid], the “increase in RvT amounts on co-incubation with precursor” value in assay [5] is 30-50%. For the same compound, the Km – broadly, the concentration of substrate that gives half-maximal velocity – on human recombinant COX-2 [6] amounted to 3.1 ± 1.3 µM.
